In patent US11344652B2, “Ionic liquids that sterilize and prevent biofilm formation in skin wound healing devices” (The Arizona Board of Regents on Behalf of Northern Arizona …, priority 2016, dated 2022) one finds conductivity and density data, which are given here for one substance.

The nature of this series: Physical characterization of CAGE at 25° C. Type of series: physicochemical. How it is done: Physical characterization at 25° C. was in good agreement with published values and was as follows: density, 0.989±0.001 g mL^−1; and conductivity, 0.0427±0.0005 mS cm^−1.
Physicochemical properties were identical to those previously published confirming purity (Zakrewsky et al., PNAS, 2014, 111, 13313; incorporated by reference herein in its entirety, and for the disclosure referenced herein). CAGE has unique properties based upon the 1:1:1 ratio of cation:anion:protonated acid. This is important since it gives rise to the low conductivity determined for CAGE (0.043 mS cm^−1) and is a potential indicator of anti-biofilm efficacy but, also provides insight to minimized skin irritation potential.

Several values for one entry are separate records, joined by “and”; a condition that tells them apart may be missing. Equal entries are not always repeated.

With choline geranate [CAGE], the conductivity is 0.0427±0.0005 mS cm^−1 and 0.043 mS cm^−1; the density was found to be 0.989 ± 0.001 g/mL.

As usually defined, the density is the mass of a sample divided by its volume.
